Results as given in patent publication US20260191853A1, “METHOD OF TREATING DRUG-INDUCED BRADYARRHYTHMIA” (OSAKA UNIVERSITY, priority 2022, published 2026).

What was measured:
Format in all cases: in vivo
Wistar rats = test: Therapeutic effect on propranolol-induced bradyarrhythmia in conscious rat (telemetry); conditions: compound (I) dihydrochloride 1 mg/kg i.p. about 30 min after propranolol 1 mg/kg i.p.; awake rats; FIG. 8
Source text: Wistar rats (10 weeks old, male, available from Kiwa Laboratory Animals Co., Ltd.) were anesthetized by inhalation of Sevofrane (available from Maruishi Pharmaceutical Co., Ltd.) and held on an operating table. An implantable telemetry transmitter ETA-F10 (DSI) was placed subcutaneously in each rat, and one lead was fixed to each of the upper right chest and the left lower chest. After being fully awakened, the rat was placed in a cage on the receiving board, and a body surface electrocardiogram was measured with a high-sensitivity amplifier. Electrocardiogram data were acquired and analyzed with LabChart Pro & LabChart module (available from Bio Research Center Co., Ltd.). After stabilization of the heart rate, propranolol (Inderal Injection, available from AstraZeneca K.K.) was administered by intraperitoneal injection at a dose of 1 mg/kg. After the elapse of about 30 minutes, the stabilization of the heart rate was determined, and then saline or compound (I) dihydrochloride was administered by intraperitoneal injection at a dose of 1 mg/kg. Thirty minutes after the administration, the heart rate in a stable state was measured for evaluation. The solvent used was saline (available from Otsuka Pharmaceutical Factory, Inc.). […]

Hartley guinea pigs [1] = test: Termination effect on fingolimod-induced bradyarrhythmia in isoflurane-anesthetized guinea pig model
Source text: Hartley guinea pigs (7 to 10 weeks old, male, available from Japan SLC, Inc.) were subjected to anesthetic induction by inhalation of isoflurane (available from Pfizer Japan Inc.), and each animal was held on an operating table having a heater function. The trachea was incised, and a tracheal cannula (KN-375, available from Natsume Seisakusho Co., Ltd.) was inserted. The tracheal cannula was connected to a ventilator (SN-480-7, available from Shinano Seisakusho Co., Ltd.), and artificial respiration was controlled by supplying 100% oxygen at a volume of 10 mL and a ventilation rate of 60 times/minute. Isoflurane (available from Pfizer Japan Inc.) anesthesia (about 1 to 4%, carrier gas: 100% oxygen) was used for maintenance of anesthesia. A catheter (BD intramedic polyethylene tubing PE50, available from Becton, Dickinson and Company) charged with 50 units/mL heparin (available from AY PHARMACEUTICALS CO., LTD.) was inserted into each of the carotid artery and the jugular vein and placed in the blood vessel. Systemic blood pressure was measured with a high-sensitivity DC amplifier (AD-611J, available from NIHON KOHDEN CORPORATION) via the catheter placed in the carotid artery. Electrodes were attached to the body surface, and a body surface electrocardiogram was measured with a high-sensitivity amplifier (AB-611J, available from NIHON KOHDEN CORPORATION). Blood pressure and electrocardiogram data were acquired and analyzed with PowerLab/Labchart system (available from ADInstruments). After stabilization of each parameter, fingolimod hydrochloride (available from Nissan Chemical Corporation) was continuously administered intravenously at 0.1 mg/kg for 10 minutes via the catheter placed in the jugular vein, followed by observation of the presence or absence of atrioventricular block. After confirmation that atrioventricular block continued for 10 minutes from the onset thereof, a solvent or compound (I) dihydrochloride was continuously administered intravenously at 0.1 mg/kg for 30 minutes, and the effect of terminating atrioventricular block was observed during the intravenous administration. The solvent used was saline (available from Otsuka Pharmaceutical Factory, Inc.). Data were recorded and blood was collected 10, 20, and 30 minutes after initiation of administration of compound (I) dihydrochloride and at the time of termination of atrioventricular block. The observation was terminated 30 minutes after initiation of the administration, and the animal was euthanized by exsanguination or intravenous administration of a large amount of saturated potassium chloride solution under isoflurane anesthesia. Data were analyzed for the presence or absence of the termination, the time required for the termination, and the plasma concentration of compound (I) at the time of termination. The plasma was collected by centrifuging the blood and cryopreserved at about −20° C. After thawing of the plasma, plasma drug concentrations were measured using LC/MS/MS after deproteinization with acetonitrile.
In Table 1, the measurements are shown as mean±standard error.

Hartley guinea pigs [2] = test: Effect on fingolimod-induced decrease in blood lymphocytes in guinea pig; conditions: compound (I) 10 or 30 mg/kg oral gavage 30 min before fingolimod hydrochloride 0.1 mg/kg oral; 5 and 24 hours; FIG. 7
Procedure: Hartley guinea pigs (8 weeks old, male, available from Japan SLC, Inc.) were fasted for about 16 hours, and then a solvent or compound (I) (free form) was administered by oral gavage to each animal at a dose of 10 or 30 mg/kg (volume: 5 mL/kg). The solvent used was 0.5 w/v % methyl cellulose 400 solution (available from FUJIFILM Wako Pure Chemical Corporation). Thirty minutes after the administration, a solvent or fingolimod hydrochloride was administered by oral gavage to the animal at a dose of 0.1 mg/kg (volume: 5 mL/kg). The solvent used was saline (available from Otsuka Pharmaceutical Factory, Inc.). Blood was collected from the jugular vein, the subclavian vein, or the abdominal vena cava before administration of compound (I) and 5 and 24 hours after administration of fingolimod hydrochloride. Blood cell components were analyzed with a multi-item automatic blood cell counter (XN-1000, available from Sysmex Corporation). The plasma was collected by centrifuging the blood and cryopreserved at about −20° C. After thawing of the plasma, plasma drug concentrations were measured using LC/MS/MS after deproteinization with acetonitrile.
In FIG. 7, the measurements are shown as mean±standard error, and (I) denotes compound (I).

Cc1cc(CO)nc2cc3c(cc12)OC(C)(C)[C@H](O)[C@H]3NCCc1ccccc1 [Compound (I), (3R,4S)-7-Hydroxymethyl-2,2,9-trimethyl-4-(phenethylamino)-3,4-dihydro-2H-pyrano[2,3-g]quinoline-3-ol]
propranolol-induced bradycardia (heart rate) (Wistar rats): improved bradycardia | fingolimod-induced bradyarrhythmia (atrioventricular block: A-V block) termination (Hartley guinea pigs [1]; compound (I) dihydrochloride 0.1 mg/kg continuous i.v.): completely terminated | Number of cases where atrioventricular block was terminated (Hartley guinea pigs [1]; fingolimod-induced block, compound (I) dihydrochloride 0.1 mg/kg continuous i.v. for 30 minutes): 5/5 | Time required for the termination of atrioventricular block (Hartley guinea pigs [1]; fingolimod-induced block, compound (I) dihydrochloride 0.1 mg/kg continuous i.v. for 30 minutes, mean±standard error): 750 ± 43 s | Compound (I) concentration at the time of termination (Hartley guinea pigs [1]; plasma, fingolimod-induced block, 0.1 mg/kg continuous i.v. for 30 minutes, mean±standard error): 30.9 ± 1.9 ng/mL | effect on the peripheral blood lymphocyte decreasing action of fingolimod (Hartley guinea pigs [2]): does not inhibit
